Reference: PMC6630832, “3-Vinylazetidin-2-Ones: Synthesis, Antiproliferative and Tubulin Destabilizing Activity in MCF-7 and MDA-MB-231 Breast Cancer Cells” (Pharmaceuticals, 2019)

Tests used:
[1] = system: HL-60; assay: Antiproliferative activity in HL-60 leukemia cells; type: cell-based; details: Homo sapiens
Method: The human breast carcinoma cell line MCF-7, was purchased from the European Collection of Animal Cell Cultures (ECACC) and was cultured in Eagle’s minimum essential medium with 10% fetal bovine serum, 2 mM L-glutamine and 100 μg/mL penicillin/streptomycin. The medium was supplemented with 1% non-essential amino acids. The human breast carcinoma cell line MDA-MB-231 was purchased from the European Collection of Animal Cell Cultures (ECACC). MDA-MB-231 cells were maintained in Dulbecco’s modified Eagle’s medium (DMEM) supplemeted with 10% (v/v) fetal bovine serum, 2 mM L-glutamine and 100 μg/mL penicillin/streptomycin (complete medium). All media contained 100 U/mL penicillin and 100 μg/mL streptomycin. […]
Cells were seeded at a density of 5 × 10^3 cells/well (MCF-7), in triplicate in 96-well plates. […] Cell viability for MCF-7 and MDA-MB-231 was analysed using the Alamar Blue assay (Invitrogen Corp, Thermo Fisher Scientific, 168 Third Avenue, Waltham, MA, USA) according to the manufacturer’s instructions. […] Fluorescence was read using a 96-well fluorimeter with excitation at 530 nm and emission at 590 nm. Results were expressed as percentage viability relative to vehicle control (100%). […]

[2] = system: colchicine-binding site of tubulin; assay: Colchicine-binding site assay (EBI cross-linking, Western blot) in MCF-7 cells; type: cell-based, human; details: 10 μM for 2 h, then EBI 100 μM for 1.5 h
Method: MCF-7 cells were seeded at a density of 5 × 10^4 cells/well in 6-well plates and incubated overnight. Cells were treated with vehicle control [ethanol (0.1% v/v)] or compound 7s (10 μM) for 2 h. After this time, selected wells were treated with N,N′-ethylene-bis(iodoacetamide)(EBI) (100 μM) (Santa Cruz Biotechnology Inc. 10410 Finnell Street, Dallas, Texas, USA) for 1.5 h. Following treatment, cells were twice washed with ice-cold PBS and lysed by addition of Laemmli buffer. Samples were separated by SDS-PAGE, trasnsferred to polyvinylidene difluoride membranes and probed with β-tubulin antibodies (Sigma-Aldrich, 2033 Westport Center Dr, St. Louis, MO, USA).

[3] = system: HEK-293T cells; assay: Cytotoxicity in non-tumourigenic HEK-293T cells; type: cell-based, human
[4] = Whole blood stability study; type: in vitro ADME; details: 37 °C
[5] = system: NCI-H226; assay: NCI60 screen (SRB), Non-Small Cell Lung Cancer; type: cell-based; details: Homo sapiens
[6] = system: HOP-92; assay: NCI60 screen (SRB), Non-Small Cell Lung Cancer; type: cell-based; details: Homo sapiens
[7] = system: EKVX; assay: NCI60 screen (SRB), Non-Small Cell Lung Cancer; type: cell-based; details: Homo sapiens

Row | Compound | IC50 [1] | β-tubulin-EBI adduct formation [2] | remaining after 6 h [4] | GI50 [5] | other results
1 | COc1ccc(/C=C\c2cc(OC)c(OC)c(OC)c2)cc1O [CA-4, Combretastatin A-4, reference compound] | 0.004 µM | EBI adduct formation is inhibited | – | – | –
2 | C=CC1C(=O)N(c2cc(OC)c(OC)c(OC)c2)C1c1ccc(OC)c(O)c1 (stereo not drawn) [Compound 7s, 4-[3-Hydroxy-4-methoxyphenyl]-1-(3,4,5-trimethoxyphenyl)-3-vinylazetidin-2-one] | 0.017 µM | EBI adduct formation is inhibited | – | – | cytotoxicity against non-tumorigenic HEK-293T cells [3]: minimal cytotoxicity; IC50 ([3]; Homo sapiens, non-tumourigenic HEK-293T cells): > 5 µM
3 | CCC1C(=O)N(c2cc(OC)c(OC)c(OC)c2)C1c1ccc(OC)c(OP(=O)(O)O)c1 (stereo not drawn) [Compound 17c, 5-(3-Ethyl-1-(3,4,5-trimethoxyphenyl)-4-oxoazetidin-2-yl)-2-methoxyphenyl dihydrogen phosphate] | – | – | 34% | – | –
4 | C=CC1C(=O)N(c2cc(OC)c(OC)c(OC)c2)C1c1ccc(OC)c(OP(=O)(O)O)c1 (stereo not drawn) [Compound 17b, 2-Methoxy-5-(1-(3,4,5-trimethoxyphenyl)-4-oxo-3-vinylazetidin-2-yl)phenyl dihydrogen phosphate] | – | – | 62% | – | –
5 | C=CC1C(=O)N(c2cc(OC)c(OC)c(OC)c2)C1c1ccc(OC)c(N)c1 (stereo not drawn) [Compound 7t, 4-(3-Amino-4-methoxyphenyl)-1-(3,4,5-trimethoxyphenyl)-3-vinylazetidin-2-one] | – | – | – | 0.0387 µM | GI50 [6]: 0.0393 µM
6 | C=CC1C(=O)N(c2cc(OC)c(OC)c(OC)c2)C1c1ccc(OC)cc1 (stereo not drawn) [Compound 7h, 4-(4-Methoxyphenyl)-1-(3,4,5-trimethoxyphenyl)-3-vinylazetidin-2-one] | – | – | – | 0.0339 µM | GI50 [7]: 0.0583 µM
